“And” between values parts separate entries of the source, which are not always exact repeats. Identical values can stand only once. “Also recorded” adds a separate entry of the source. Like-named read-outs stand apart in the source and are kept apart here.
How the values were obtained:
[1] = test system: Sitophilus oryzae; assay: Flour disk antifeedant bioassay with rice weevils (food consumption as % of control; EC50/EC90 for feeding reduction); assay type: in vivo; settings: for food consumption, peptide to saponin treatment ratio 1:1 / food consumption, peptide to saponin treatment ratio 9:1 / food consumption, peptide to saponin treatment ratio 1:9: peptide source AIEX YM3; for synergy with pea peptides (in words): single dose tests, pea peptide to saponin treatment ratios of 9:1, 1:1 and 1:9; for food consumption, initial treatment: Table 20, saponin alone; for antifeedant activity (in words): rice weevil flour disk bioassay; for EC90 (%) to reduce feeding by 90%: three days on treated wafers
Method: The bioactivity of separated fractions was determined primarily by a flour disk antifeedant bioassay with the rice weevil (Sitophilus oryzae), an insect pest of stored products.
A glass column (1.2 cm internal diameter×20.5 cm length) equipped with a solvent reservoir and stopcock was filled with silica gel (Mallinckrodt SilicAR cc-7) using a slurry of the silica gel in chloroform (Merck OmniSolv containing 1% ethanol). The top of the bed was protected with sea sand. C8 powder (130 mg) was applied to the column, after mixing with silica gel, as a 1.25 cm band. Using a slight positive air pressure to maintain reasonable flow rates, the column was eluted with chloroform (75 ml) then with 75 ml volumes of various mixtures of chloroform and methanol followed by pure methanol (Table 1). The column was eluted with more methanol (75 ml) and finally with two additional volumes of methanol (250 ml each). […] A final evaporation was performed with a Savant apparatus (43° C.). The tubes were re-weighed, capped and transferred to the bioassay laboratory. Each sample was dissolved in 70% ethanol (0.5 ml) and 0.2 ml of that solution was added to the wheat flour (200 mg) for preparation of the disks. […] Control disks were prepared with 0.2 ml of 70% ethanol.
A test insecticidal compound is incorporated into flour disks. […] A typical dose in many of the above examples is 1.6 milligram/200 milligram flour. Wheat flour is typically used.
(§1) Reduction in feeding activity elicited by the experimental samples was compared to food consumption of untreated controls, obtained by weighing the disks before and after exposure to insects and expressed as percent feeding relative to the control. Bioassay can also include insecticidal measurements (lethality with rice weevil).
(§2) Flour disks (ca. 0.1 g/disk) were weighed before and after exposure to the insects. […] Antifeedant activity was determined by expressing consumption of treated disks as a percentage of control disks (70% ethanol). Positive controls using the same C8 extract were run with each bioassay.
The estimate and confidence limits are the values of X where the line Y=Yo crosses the regression line and its upper and lower confidence curves, respectively. The formulae can be expressed in terms of outputs from the regression analysis. Let a and b be the estimates of the intercept and slope, MSE the mean square error, n the number of observations, t the (2-sided) critical value of t with n−2 degrees of freedom, V(b) the variance (standard error squared) of b and D=b^2−t^2V(b)). Then the estimate of X is Xo=(Yo−a)/b and the confidence limits for X are X0+t^2V(b)(Y0− Y)/bD±H where H^2=t^2└D·MSE/n+V(b)(Y0− Y)^2┘/D^2. The interval is not symmetric about Xo. […]

[2] = test system: Sitophilus oryzae; assay type: in vivo; settings: for Mean survival time (days ± SE) / LD90 (%): saponin:peptide ratio 1:0; for LD90 (%): held three days on treated wafers, at 7 days; for mortality / toxicity to the rice weevil (in words): used alone
Method: as §1, §2
Probit analysis (Polo-PC, LeOra Software, Berkeley, Calif., U.S.A.) was used to estimate the concentrations required to kill 50 and 90% of the population after seven days. For the experiments that used a single dose, the mean survival time was estimated using Kaplan-Meier survival analysis (SigmaStat 3.0, SPSS Inc, Chicago, Ill., U.S.A.).

[3] = molecular target: calcium-dependent potassium channels (Homo sapiens, UniProt Q12791); settings: mammalian in vitro experiments (McManus et al.); cited from earlier work
[4] = test system: Sitophilus oryzae; settings: sample from a Japanese scientist; Bodnaryk et al., U.S. Pat. No. 5,955,082; cited from earlier work
[5] = C8 material as peptide source, total dose 1.6 mg/200 mg of flour (D-I: 0.8 mg/100 mg)
[6] = total dose 1.6 mg/200 mg of flour (D-I: 0.8 mg/100 mg)
[7] = total dose 1.6 mg/200 mg of flour
[8] = saponin:peptide ratio 1:0 (saponin or soap alone), concentration 0.8%
[9] = C8 material as peptide source, total dose 1.6 mg/200 mg of flour
[10] = separate experiment, different batch of C8 material as peptide source, total dose 1.6 mg/200 mg of flour

calcium-dependent potassium channels, sequence (Q12791 whole entry): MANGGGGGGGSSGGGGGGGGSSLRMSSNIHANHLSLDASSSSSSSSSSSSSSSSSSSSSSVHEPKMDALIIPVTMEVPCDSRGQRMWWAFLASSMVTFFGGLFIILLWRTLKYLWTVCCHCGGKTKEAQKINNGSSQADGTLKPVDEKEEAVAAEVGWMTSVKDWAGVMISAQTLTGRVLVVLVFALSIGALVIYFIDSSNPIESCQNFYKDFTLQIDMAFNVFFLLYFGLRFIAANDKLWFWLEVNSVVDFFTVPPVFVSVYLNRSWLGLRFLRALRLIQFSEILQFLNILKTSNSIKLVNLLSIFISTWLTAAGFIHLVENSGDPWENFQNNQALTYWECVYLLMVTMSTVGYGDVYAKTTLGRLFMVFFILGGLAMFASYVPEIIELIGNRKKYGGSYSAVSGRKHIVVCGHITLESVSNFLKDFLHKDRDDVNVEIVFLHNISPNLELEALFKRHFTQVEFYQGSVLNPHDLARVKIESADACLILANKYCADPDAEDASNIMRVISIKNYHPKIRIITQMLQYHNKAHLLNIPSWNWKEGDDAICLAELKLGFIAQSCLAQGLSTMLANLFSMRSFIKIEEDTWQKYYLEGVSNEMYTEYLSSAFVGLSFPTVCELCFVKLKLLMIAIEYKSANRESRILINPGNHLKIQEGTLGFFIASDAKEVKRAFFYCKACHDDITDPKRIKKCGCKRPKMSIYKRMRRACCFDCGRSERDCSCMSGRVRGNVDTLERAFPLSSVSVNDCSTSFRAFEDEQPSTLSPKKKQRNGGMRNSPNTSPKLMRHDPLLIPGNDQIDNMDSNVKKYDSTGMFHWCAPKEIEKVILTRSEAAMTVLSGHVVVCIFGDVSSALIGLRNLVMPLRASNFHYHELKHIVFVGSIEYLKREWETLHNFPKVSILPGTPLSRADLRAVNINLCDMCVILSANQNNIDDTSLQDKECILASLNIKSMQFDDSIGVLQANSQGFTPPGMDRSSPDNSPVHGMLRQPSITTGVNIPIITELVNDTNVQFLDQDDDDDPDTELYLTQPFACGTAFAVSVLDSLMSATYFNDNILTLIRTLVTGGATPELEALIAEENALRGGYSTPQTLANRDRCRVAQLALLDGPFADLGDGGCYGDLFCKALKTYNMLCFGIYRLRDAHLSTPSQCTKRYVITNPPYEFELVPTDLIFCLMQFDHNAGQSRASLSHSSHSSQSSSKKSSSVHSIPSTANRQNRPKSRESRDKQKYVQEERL
calcium-dependent potassium channels, sequence (Q16558 whole entry partner): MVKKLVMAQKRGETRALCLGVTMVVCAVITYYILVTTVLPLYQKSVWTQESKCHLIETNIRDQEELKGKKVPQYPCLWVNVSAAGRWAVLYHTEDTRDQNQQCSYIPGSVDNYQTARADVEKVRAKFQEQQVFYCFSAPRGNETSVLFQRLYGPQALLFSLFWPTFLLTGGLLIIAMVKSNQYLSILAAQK

Compound | food consumption, peptide to saponin treatment ratio 9:1 (values in brackets) [1, 5] | food consumption, peptide to saponin treatment ratio 1:1 [1, 6] | food consumption, peptide to saponin treatment ratio 9:1 [1, 6] | synergy with pea peptides (in words) [1] | food consumption, initial treatment ([1]; 1.6 mg/200 mg of flour) | food consumption, peptide to saponin treatment ratio 1:9 [1, 7] | antifeedant activity (in words) [1] | Feeding as a percent of control (%) [1, 8] | Mean survival time (days ± SE) ([2]; 0.8%, Kaplan-Meier) [a days] | further results
C[C@@H]1O[C@@H](O[C@H]2[C@H](O[C@H]3[C@H](O[C@H]4CC[C@@]5(C)[C@@H](CC[C@]6(C)[C@@H]5CC=C5[C@@H]7CC(C)(C)CC(=O)[C@]7(C)CC[C@]56C)[C@@]4(C)CO)O[C@H](C(=O)O)[C@@H](O)[C@@H]3O)O[C@H](CO)[C@H](O)[C@@H]2O)[C@H](O)[C@H](O)[C@H]1O [Dehydrosoyasaponin I, dehydrosoyasaponin I] | (17) % of control | 34 % of control | 32 % of control | clearly synergistic | – | – | – | – | – | food consumption in the rice weevil bioassay ([1]; RPC isolate, […]100 mg of flour (equivalent to 1.28 mg/200 mg)): 65%; Feeding as a percent of control (%) ([1]; saponin:peptide ratio 1:0, 0.6% used in this test): 65%; Mean survival time (days ± SE) ([2]; 0.6% used in this test): 13.8 ± 0.2 a days; action on calcium-dependent potassium channels (in words) [3]: high-affinity activator; potency as a potassium channel opener relative to S-I [3]: 60 fold
CC1(C)[C@@H](O[C@H]2O[C@H](C(=O)O)[C@@H](O)[C@H](O)[C@H]2O[C@@H]2O[C@H](C(=O)O)[C@@H](O)[C@H](O)[C@H]2O)CC[C@]2(C)[C@H]3C(=O)C=C4[C@@H]5C[C@@](C)(C(=O)O)CC[C@]5(C)CC[C@@]4(C)[C@]3(C)CC[C@@H]12 [Glycyrrhizic acid, glycyrrhizic acid] | – | 45 % of control | 33 % of control | clearly synergistic | 96 % of control | 39 % of control | inactive; also recorded: no significant reduction in feeding | 96% | – | –
C[C@@H]1O[C@@H](O[C@H]2[C@H](O[C@H]3CC[C@@]4(C)[C@@H](CC[C@]5(C)[C@@H]4CC=C4[C@@H]6CC(C)(C)CC[C@]6(C(=O)O[C@@H]6O[C@H](CO[C@@H]7O[C@H](CO)[C@@H](O[C@@H]8O[C@@H](C)[C@H](O)[C@@H](O)[C@H]8O)[C@H](O)[C@H]7O)[C@@H](O)[C@H](O)[C@H]6O)CC[C@]45C)[C@]3(C)CO)OC[C@H](O)[C@@H]2O)[C@H](O)[C@H](O)[C@H]1O [Hederacoside C, hederacoside C] | – | 47 % of control | 44 % of control | clearly synergistic | 117 % of control | 58 % of control | inactive | 117% | 13.9 | antifeedant activity (in words) ([1]; listed as hederacoside C): no significant reduction in feeding
CCCCCCCCCCCCCCCC(=O)OC[C@@H](O)COP(=O)([O-])OCC[N+](C)(C)C [L-16:0] | – | – | – | – | – | – | – | – | – | food consumption in the rice weevil bioassay ([1]; 1.6 mg/200 mg flour, relative to control): 102%; food consumption ([1]; lysolecithin-saponin (soyasaponin I) mixtures, similar experiments, total dose 0.016-1.6 mg/200 mg of flour): 84-102%; food consumption, expressed as % of untreated control ([1]; mixtures of 90% lysolecithin and 10% peptides (AIEX YM3), total dose 0.016-1.6 mg/200 mg of flour): 71-115%
C[C@@H]1O[C@@H](O[C@H]2[C@H](O[C@H]3[C@H](O[C@H]4CC[C@@]5(C)[C@@H](CC[C@]6(C)[C@@H]5CC=C5[C@@H]7CC(C)(C)C[C@@H](O)[C@]7(C)CC[C@]56C)[C@@]4(C)CO)O[C@H](C(=O)O)[C@@H](O)[C@@H]3O)O[C@H](CO)[C@H](O)[C@@H]2O)[C@H](O)[C@H](O)[C@H]1O [Soyasaponin I, soyasaponin I] | (29) % of control | 23 % of control | 24 % of control | – | 98 % of control | 16 % of control | inactive; also recorded: no significant reduction in feeding | 92% and 98% | 13.8 | food consumption, peptide to saponin treatment ratio 1:1 (values in brackets) [1, 9]: (27) % of control; food consumption, peptide to saponin treatment ratio 1:9 (values in brackets) [1, 9]: (26) % of control; food consumption in the rice weevil bioassay ([1]; RPC isolate, 0.43 mg dose, disks from one-half the usual amount of flour (100 mg)): 100%; food consumption (% of control) ([1]; Table 3, dose 1.6 mg/200 mg flour, listed as soyasaponin I (free acid)): 83 % of control and 114 % of control; feeding, % of the control ([1]; highest concentration tested, 12.8%): 75 % of the control; EC90 (%) to reduce feeding by 90% ([1]; saponin:peptide ratio 1:0): >>12 ^ %; food consumption, peptide to saponin treatment ratio 1:1 (values in brackets) [1, 10]: (33)^7 % of control; food consumption, peptide to saponin treatment ratio 1:9 (values in brackets) [1, 10]: (42)^7 % of control; food consumption, peptide to saponin treatment ratio 9:1 (values in brackets) [1, 10]: (44)^7 % of control; LD90 (%) [2]: >>12 ^ %; mortality / toxicity to the rice weevil (in words) [2]: no mortality; mortality / toxicity to the rice weevil (in words) ([2]; listed as soyasaponin I): no increase in mortality; activity in the rice weevil bioassays (in words) [4]: nearly inactive
CCCCCCCCCCCC(=O)OCCOCCOCCOCCOCCOCCOCCOCCOCCOCCOCCOCCOCCOCCOCCOCCOCCOCCOCCOCCOCC(OCCOCCOCCOCCOCCOCCOCCOCCOCCOCCOCCOCCOCCOCCOCCOCCOCCOCCOCCOCCO)C1OCC(OCCOCCOCCOCCOCCOCCOCCOCCOCCOCCOCCOCCOCCOCCOCCOCCOCCOCCOCCOCCO)C1OCCOCCOCCOCCOCCOCCOCCOCCOCCOCCOCCOCCOCCOCCOCCOCCOCCOCCOCCOCCO (stereo not drawn) [Tween 20, polyoxyethylene(20)sorbitan monolaurate] | – | – | – | – | – | – | – | 106% | 13.7 | mortality / toxicity to the rice weevil (in words) [2]: Neither Tween or dish soap were toxic
Cc1occc(=O)c1O [maltol, 3-hydroxy-2-methyl-4-pyrone] | – | – | – | – | – | – | inactive | – | – | f.c. (food consumption) ([1]; Table 4, 1.6 mg/200 mg of flour): 110 % of control
C[C@@H]1O[C@@H](O[C@H]2[C@H](O[C@H]3CC[C@@]4(C)[C@@H](CC[C@]5(C)[C@@H]4CC=C4[C@@H]6CC(C)(C)CC[C@]6(C(=O)O)CC[C@]45C)[C@]3(C)CO)OC[C@H](O)[C@@H]2O)[C@H](O)[C@H](O)[C@H]1O [α-Hederin, α-hederin] | – | 26 % of control | 24 % of control | – | 36 % of control | 26 % of control | – | 36% | – | –
β-escin | (14) % of control | 17 % of control | 17 % of control | – | – | 18 % of control | – | 18% and 30% | 6.3 ± 0.2 | food consumption, peptide to saponin treatment ratio 1:1 (values in brackets) [1, 9]: (15) % of control; food consumption, peptide to saponin treatment ratio 1:9 (values in brackets) [1, 9]: (16) % of control; EC90 (%) to reduce feeding by 90% ([1]; saponin:peptide ratio 1:0): 1.5%; LD90 (%) [2]: 1.74%
